From US20260374766A1, “METHODS FOR TREATING CANCER” (Antares Therapeutics, Inc., priority 2022, published 2026)
pIC50, pKd: −log10 of the molar value. Like-named read-outs stand apart in the source and are kept apart here.

Key:
[1] = target: p53 Y220C (Homo sapiens, UniProt P04637, Y220C); assay: Luciferase Reporter Assay (Luc), p53 response element, NClH1299 cells with inducible p53 Y220C; assay type: cell-based; details: 6 hour; for AC50: read-out: Luc P53 Y220C AC50
Protocol: Luciferase Reporter Assay Protocol
The cells were then used for p53 reporter assay. 5,000 cells were seeded in each well of 384 plate and cultured in 0.5 ug/mL doxycycline (D3072; Sigma) containing medium for 24 hours before compound treatment. After 6 hour of compound treatment, equal volume of One-Glo reagent (E6110; Promega) was added to each well and the plate was incubated for 5 minutes with shaking at room temperature. The luciferase activity was immediately measured with PheraStar microplate reader.

[2] = target: T1, p53 Y220C mutant protein (amino acid residues 94-293) (Homo sapiens, UniProt P04637, Y220C); assay: Surface Plasmon Resonance (SPR) assay, Kd_kinetic; assay type: binding; details: SPR, p53 Y220C, read-out: SPR P53 Y220C KD kinetic
T1 construct: p53 Y220C mutant protein (amino acid residues 94-293)
Protocol: Surface Plasmon Resonance (SPR) Assay Protocol
SPR experiments were performed on a Biacore 8K instrument. […] The running buffer contained 50 mM Tris, pH 7.5, 100 mM NaCl, 1 mM DTT, 0.01% Brij35, 0.05% Tween-20 and 1% DMSO. The assay temperature was maintained at 16 or 20 °C and data were fit into the 1:1 binding model using the Biacore Insight Evaluation software.

[3] = tested on: H1299 p53 Y220C; assay: Cell Proliferation Assay (CellTiter-Glo, CTG), H1299 p53 Y220C (NClH1299-inducible p53 Y220C); assay type: cell-based; details: Homo sapiens, NCI-H1299, 120 h, NClH1299-inducible p53 Y220C cells, 5 days
Protocol: (§1) Inducible p53 Y220C and R273H constructs (Tet-One inducible expression system; Takara) were stably expressed in NClH1299 cells by lentiviral transduction. NUGC3, A549, BxPC3, T3M4, HuH7, HCC2935, MFE296, NClH1299, NClH1299-inducible p53 Y220C, and NClH1299-inducible p53 R273H cell lines were used for cell proliferation assay. 250-500 cells were seeded in each well of 384 plate and then compounds were dispensed into each well using Echo or Tecan. After 5 days of incubation, equal volume of CellTiter-Glo reagent (G7570; Promega) was added into each well and the plate was incubated at room temperature for 10 minutes with shaking. The luminescent signal was measured by PheraStar microplate reader and IC50 was calculated.

[4] = tested on: H1299 p53 R273H; assay: Cell Proliferation Assay (CellTiter-Glo, CTG), H1299 p53 R273H (NClH1299-inducible p53 R273H); assay type: cell-based; details: Homo sapiens, NCI-H1299, 120 h, CellTiter-Glo, H1299 p53 R273H, 5 days
Protocol: as §1

[5] = AC50, luciferase reporter, NClH1299 inducible p53 Y220C
[6] = Emax, luciferase reporter, NClH1299 inducible p53 Y220C
[7] = AC50, NClH1299 cells with inducible p53 Y220C
[8] = Emax, NClH1299 cells with inducible p53 Y220C, 10 uM tool compound as positive control

T1 sequence (P04637 94-293, stated change not applied): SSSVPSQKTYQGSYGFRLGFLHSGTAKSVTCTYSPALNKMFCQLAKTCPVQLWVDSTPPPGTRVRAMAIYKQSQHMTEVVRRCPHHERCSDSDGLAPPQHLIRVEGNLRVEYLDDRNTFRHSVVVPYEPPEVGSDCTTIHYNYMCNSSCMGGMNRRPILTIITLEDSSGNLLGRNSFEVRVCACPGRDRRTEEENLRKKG

| SMILES | AC50 [1, 5] | Emax [1, 6] | pKd [2] | pIC50 ([3]; CellTiter-Glo) | AC50 [1, 7] | Emax [1, 8] | other results |
| --- | --- | --- | --- | --- | --- | --- | --- |
| COc1cc(S(C)(=N)=O)ccc1NCC#Cc1cc2c(N[C@@H]3CCN(C)C[C@@H]3F)cccn2c1SC(F)(F)F (some centres unmarked) [Example 374] | < 750 nM | 80 to 90% | > 8.00 | > 6.12 | – | – | – |
| CNC(=O)c1cc(NCC#Cc2cc3c(N[C@@H]4CCN(C)C[C@@H]4F)cccn3c2SC(F)(F)F)n2ncnc2c1 [Example 361] | > 3000 nM | < 70% | – | < 5.52 | – | – | – |
| [2H]C([2H])([2H])Oc1cc(C(=O)NC)ccc1NCC#Cc1nn2c(N[C@@H]3CCN(C)C[C@@H]3F)cccc2c1SC(F)(F)F [Example 500] | – | – | > 8.00 | – | < 750 nM | > 90% | pIC50 [3]: > 6.12 |
| [2H]C([2H])([2H])Oc1ccc(C(=O)NC)cc1NCC#Cc1nc2c(N[C@@H]3CCN(C)C[C@@H]3F)cccn2c1SC(F)(F)F [Example 507] | – | – | > 8.00 | – | < 750 nM | > 90% | pIC50 [3]: > 6.12 |
| [2H]C(C)(O)CNC(=O)c1ccc(NCC#Cc2cc3c(N[C@@H]4CCN(C)C[C@@H]4F)cccn3c2SC(F)(F)F)c(OC)c1 (single isomer, unassigned) [Example 487, 4-{[3-(8-{[(3S,4R)-3-fluoro-1-methylpiperidin-4-yl]amino}-3-[(trifluoromethyl)sulfanyl]indolizin-2-yl)prop-2-yn-1-yl]amino}-N-[(2R*)-2-hydroxy(2-^2H)propyl]-3-methoxybenzamide] | – | – | > 8.00 | – | < 750 nM | > 90% | pIC50 [3]: > 6.12 |
| [2H]C([2H])([2H])Oc1cc(S(C)(=O)=O)ccc1NCC#Cc1nn2c(N[C@@H]3CCN(C)C[C@@H]3F)cccc2c1SC(F)(F)F [Example 461] | – | – | > 8.00 | – | < 750 nM | > 90% | – |
| [2H]C([2H])([2H])Oc1cc(S(C)(=O)=O)ccc1NCC#Cc1cc2c(N[C@@H]3CCN(C(F)(F)F)C[C@@H]3F)cccn2c1SC(F)(F)F [Example 412] | < 750 nM | > 90% | > 8.00 | – | – | – | – |
| CNC(=O)c1ccc(NCC#Cc2cc3c(N[C@@H]4CCN(C)C[C@@H]4F)cccn3c2SC(F)(F)F)c(O[C@H]2C[C@@H](O)C2)c1 [Example 474] | – | – | > 8.00 | – | < 750 nM | > 90% | – |
| COc1ccc(C(=O)N(C)C)cc1NCC#Cc1nc2c(N[C@@H]3CCN(C)C[C@@H]3F)cccn2c1SC(F)(F)F [Example 143] | – | – | – | – | – | – | pIC50 [4]: 5.10 to 5.30; Emax ([1]; luciferase reporter, NClH1299 inducible p53 Y220C, 10 uM tool compound as positive control): > 90%; AC50 ([1]; luciferase reporter, NClH1299 inducible p53 Y220C): < 750 nM; pKd ([2]; kinetic KD): > 8.00 |
| CNC(=O)c1ccc(NCC#Cc2nc3c(N[C@@H]4C[C@@H]5COC[C@@H](N5)[C@@H]4F)cccn3c2SC(F)(F)F)c(OC)c1 (relative stereo) [Example 329] | – | 80 to 90% | – | > 6.12 | – | – | – |
| CNC(=O)c1cc(NCC#Cc2nn3c(N[C@@H]4CCN(C)C[C@@H]4F)cccc3c2SC(F)(F)F)c(OC)cn1 [Example 271] | < 750 nM | 80 to 90% | > 8.00 | > 6.12 | – | – | – |
| CNC(=O)c1ccc(OCCN(C)C)c(NCC#Cc2nc3c(N[C@@H]4CCOC[C@@H]4F)cccn3c2SC(F)(F)F)c1 [Example 229] | 750 to 1500 nM | 70 to 80% | > 8.00 | 5.82 to 6.12 | – | – | – |
| CNC(=O)c1cc(NCC#Cc2cc3c(N[C@@H]4CCN(C)C[C@@H]4F)cccn3c2SC(F)(F)F)c2ncnn2c1 [Example 494] | – | – | > 8.00 | – | < 750 nM | > 90% | pIC50 [3]: > 6.12 |
| CNC(=O)c1ccc(O[C@H]2C[C@@H](O)C2)c(NCC#Cc2cc3c(N[C@@H]4CCN(C)C[C@@H]4F)cccn3c2SC(F)(F)F)c1 [Example 413, 3-{[3-(8-{[(3S,4R)-3-fluoro-1-methylpiperidin-4-yl]amino}-3-[(trifluoromethyl)sulfanyl]indolizin-2-yl)prop-2-yn-1-yl]amino}-N-methyl-4-[(1s,3s)-3-hydroxycyclobutoxy]benzamide] | < 750 nM | > 90% | > 8.00 | > 6.12 | – | – | – |
